From patent publication US20230174526A1, “BENZOTHIAZOLYL BIARYL COMPOUND, AND PREPARATION METHOD AND USE” (SHANGHAI RINGENE BIOPHARMA CO., LTD., priority 2020, published 2023)

Columns and labels:
KRAS^G12C/SOS1 = molecular target: T1, KRAS^G12C/SOS1 (Homo sapiens, UniProt P01116, G12C); assay: KRAS^G12C/SOS1 protein-protein interaction Binding assay (CisBio kit); details: class symbols
T1 construct: purchased CisBio
Protocol: CisBio’s KRAS^G12C/SOS1 kit was used to test the efficacy of the compound on inhibiting the protein-protein interaction between SOS1 and KRAS^G12Cby Binding assay.Results were expressed as IC50values.
Test methods: (1) the test compound was tested at a concentration of 1000 nM. Diluted to 3-fold diluted compound of a 200-fold final concentration of 100% DMSO solution in a 384-well plate at 10 concentrations. 50 nL of 200-fold final concentration of compound was transferred to the destination plate 384 well plate using a dispenser Echo 550.50 nL of 100% DMSO was added to the negative control wells and positive control wells; (2) 4-fold final concentration of Tag1 SOS1 solution was prepared using Diluent buffer; (3) 2.5 µL of 4-fold final concentration of Tag1 SOS1 solution was added to the 384-well plate; (4) 4-fold final concentration of Tag2 KRAS^G12C solution was prepared using Diluent buffer; (5) 2.5 µL of 4-fold final concentration of Tag2 KRAS^G12C solution was added to compound wells and positive control wells, respectively; 2.5 µL of diluent buffer was added to negative control wells; (6) the 384-well plate was centrifuged at 1000 rpm for 30 seconds, shaken and mixed, and incubated at room temperature for 15 min; (7) 1-fold final concentration of Anti Tag1 TB3+ solution and 1-fold final concentration of Anti Tag2 XL665 solution were prepared with Detection buffer, and 5 µL of the mixture was added to each well after mixing the two solutions; (8) the 384-well plate was centrifuged at 1000 rpm for 30 seconds, shaken and mixed, and incubated at room temperature for 120 minutes; (9) the Envision enzyme marker was used to read
Em665/620; (10) data analysis, calculation formula; where Min signal is the mean value of negative control wells, Max signal is the mean value of positive control wells.The log value of concentration was used as the X-axis and the percentage inhibition as the Y-axis to fit the quantitative efficacy curve using the log(inhibitor) vs. response Variable slope of the quantitative efficacy curve of the analytical software GraphPad Prism 5 to derive the IC50 value of each compound on the enzyme activity.The fitting formula was: Y=Bottom+(Top Bottom)/(1+10^A((LogIC50X)^∗ HillSlope)).

[1] = system: NCI-H358 (lung cancer) cells; assay: Proliferation test method 1 (2D, MTT), NCI-H358; format: cell-based; details: Homo sapiens, 5-7 days, read-out: IC50 proliferation inhibitory activity against NCI-H358
Protocol: Test method 1 (2D):NCI-H358 (lung cancer) and MiaPaca-2 cells (pancreatic cancer) cells (100 µL/well, 20,000 cells/mL) were inoculated in 96-well culture plates supplemented with 10% fetal bovine serum and 1% penicillin/streptomycin sulfate, respectively.Using 0.5% dimethyl sulfoxide as a blank control, cells were treated with a solution of the compound to be tested at a starting concentration of 10 µM, tripled diluted testing solution of the compound in eight gradients were used to treat cells, and then incubated in a 5% CO2 incubator for a certain period of time (5-7 days).At the end of incubation, 10 µL of MTT stock solution (5 mg/mL) was added to each well.The culture plates were incubated at 37° C. for 4 h and then the medium was removed.Dimethyl sulfoxide (100 µL) was added to each well and then shaken sufficiently. The absorbance of the product formazanwas measured at 570 nm on the Thermo Scientific Varioskan Flash multimode reader.IC50 values were obtained by fitting dose-response data into a three-parameter nonlinear regression model using GraphPad Prism 6.0 software.

[2] = system: phosphorylated ERK levels of NCI-H358; assay: ERK phosphorylation (western blot), H358; format: cell-based; details: Homo sapiens, 3 h
Protocol: (§1) Test method 3 (ERK phosphorylation): Miapaca-2 or H358 cells were inoculated at certain concentrations in 96-well plates and incubated overnight at 37° C., 5% CO2 in a cell culture incubator, and serial dilutions of the test compound (5 concentrations, 3-fold dilution) were added to the plates the next day for 24 h (Miapaca-2) or 3 h (H358), then lysis solution containing protease and phosphatase inhibitor were added to lyse the cells to extract proteins and western blot method was used to detect the level of p-ERK.

[3] = system: phosphorylated ERK levels of MiaPaca-2; assay: ERK phosphorylation (western blot), MiaPaca-2; format: cell-based; details: Homo sapiens, MIA PaCa-2, 24 h
Protocol: as §1

CYP1A2 = molecular target: T2, CYP1A2 (Homo sapiens, UniProt P05177); assay: Direct inhibition test (DI test), CYP1A2; format: in vitro ADME; details: human liver microsomes
T2 construct: a system of 100 µL of human liver microsomes (final concentration 0.2 mg/mL); from tissue; host or cells: human liver microsomes
T2 sequence (P05177 1-516): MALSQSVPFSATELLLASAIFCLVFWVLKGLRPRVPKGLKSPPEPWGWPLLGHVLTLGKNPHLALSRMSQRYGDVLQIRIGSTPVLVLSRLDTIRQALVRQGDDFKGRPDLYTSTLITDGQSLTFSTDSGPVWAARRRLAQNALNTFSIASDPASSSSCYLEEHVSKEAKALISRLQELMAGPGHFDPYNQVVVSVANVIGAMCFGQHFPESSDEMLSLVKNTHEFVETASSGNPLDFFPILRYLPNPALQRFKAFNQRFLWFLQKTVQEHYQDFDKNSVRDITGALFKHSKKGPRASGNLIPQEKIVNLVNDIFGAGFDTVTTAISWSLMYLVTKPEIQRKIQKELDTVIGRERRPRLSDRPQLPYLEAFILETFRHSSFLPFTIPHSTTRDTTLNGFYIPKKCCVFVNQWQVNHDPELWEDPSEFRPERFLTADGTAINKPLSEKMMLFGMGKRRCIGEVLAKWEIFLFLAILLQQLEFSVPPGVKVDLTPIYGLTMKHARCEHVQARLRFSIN
Protocol: (§2) Direct inhibition test (DI test): direct inhibition warm incubation was performed with a system of 100 µL of human liver microsomes (final concentration 0.2 mg/mL) containing NADPH (final concentration 1 mM), 10 µM compound, positive inhibitor cocktail (ketoconazole 10 µM, quinidine 10 µM, sulfobenzyrazole 100 µM, α-naphthoflavone 10 µM, tranylcypromine 1000 µM), a negative control (BPS with 0.1% DMSO) and a mixed probe substrate (midazolam 10 µM, testosterone 100 µM, dextromethorphan 10 µM, diclofenac 20 µM, phenacetin100 µM, mephenytoin100 µM), and the reaction was terminated after a warm incubation for 20 min.The relative enzyme activity was calculated by measuring the relative amount of metabolites produced.

CYP2C19 = molecular target: T3, CYP2C19 (Homo sapiens, UniProt P33261); assay: Direct inhibition test (DI test), CYP2C19; format: in vitro ADME; details: human liver microsomes
T3 construct: a system of 100 µL of human liver microsomes (final concentration 0.2 mg/mL); from tissue; host or cells: human liver microsomes
T3 sequence (P33261 whole entry): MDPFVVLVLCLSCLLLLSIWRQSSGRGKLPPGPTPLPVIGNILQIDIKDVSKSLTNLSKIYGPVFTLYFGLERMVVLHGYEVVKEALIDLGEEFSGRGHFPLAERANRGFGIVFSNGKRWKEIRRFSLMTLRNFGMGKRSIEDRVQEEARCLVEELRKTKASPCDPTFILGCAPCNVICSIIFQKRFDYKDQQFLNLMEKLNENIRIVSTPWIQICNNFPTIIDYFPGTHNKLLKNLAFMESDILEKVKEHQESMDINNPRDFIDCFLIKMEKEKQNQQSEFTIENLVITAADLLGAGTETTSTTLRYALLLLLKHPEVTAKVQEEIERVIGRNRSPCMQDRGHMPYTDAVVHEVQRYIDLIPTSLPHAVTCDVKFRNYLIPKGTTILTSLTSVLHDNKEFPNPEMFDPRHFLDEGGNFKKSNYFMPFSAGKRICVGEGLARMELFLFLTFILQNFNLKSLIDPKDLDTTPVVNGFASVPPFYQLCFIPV
Protocol: as §2

hERG potassium channels = hERG potassium channels (Homo sapiens, UniProt Q12809); assay: hERG inhibition test; format: cell-based; details: highest test concentration 40 µM
hERG potassium channels, sequence (Q12809 whole entry): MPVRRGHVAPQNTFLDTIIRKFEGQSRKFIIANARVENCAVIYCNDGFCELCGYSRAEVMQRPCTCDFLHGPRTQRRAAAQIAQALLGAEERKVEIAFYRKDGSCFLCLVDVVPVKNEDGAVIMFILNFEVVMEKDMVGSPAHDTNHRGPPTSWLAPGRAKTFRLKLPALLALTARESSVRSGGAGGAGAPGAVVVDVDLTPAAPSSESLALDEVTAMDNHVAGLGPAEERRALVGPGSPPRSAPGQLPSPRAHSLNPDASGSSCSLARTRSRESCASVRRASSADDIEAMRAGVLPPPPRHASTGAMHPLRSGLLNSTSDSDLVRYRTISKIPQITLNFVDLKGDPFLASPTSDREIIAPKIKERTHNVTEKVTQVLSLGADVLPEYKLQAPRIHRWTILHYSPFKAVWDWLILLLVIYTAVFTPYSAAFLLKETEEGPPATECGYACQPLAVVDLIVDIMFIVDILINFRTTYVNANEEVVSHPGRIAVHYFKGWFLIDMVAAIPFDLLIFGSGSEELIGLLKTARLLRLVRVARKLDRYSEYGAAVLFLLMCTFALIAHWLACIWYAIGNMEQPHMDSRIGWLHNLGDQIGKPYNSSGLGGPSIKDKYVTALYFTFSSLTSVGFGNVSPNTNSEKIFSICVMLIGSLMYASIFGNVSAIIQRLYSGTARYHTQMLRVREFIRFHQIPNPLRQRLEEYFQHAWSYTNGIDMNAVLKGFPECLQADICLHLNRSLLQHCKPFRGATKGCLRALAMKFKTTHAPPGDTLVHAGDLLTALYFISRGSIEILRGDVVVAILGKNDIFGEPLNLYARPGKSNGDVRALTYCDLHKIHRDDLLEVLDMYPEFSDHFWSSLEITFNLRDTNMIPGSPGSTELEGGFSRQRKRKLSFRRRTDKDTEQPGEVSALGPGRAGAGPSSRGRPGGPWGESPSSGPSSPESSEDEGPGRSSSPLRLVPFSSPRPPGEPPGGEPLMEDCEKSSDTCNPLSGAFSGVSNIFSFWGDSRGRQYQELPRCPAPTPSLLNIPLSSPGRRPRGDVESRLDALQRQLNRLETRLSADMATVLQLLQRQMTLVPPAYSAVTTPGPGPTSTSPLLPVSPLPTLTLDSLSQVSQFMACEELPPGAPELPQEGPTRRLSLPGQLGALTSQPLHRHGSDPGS

[4] = In vivo pharmacokinetic parameter testing in mice; parameters: species or system ICR mice; details: for AUC(0-t) / clearance / half-life: male, ICR, mouse, plasma, iv(1 mg/kg); for AUC(0-t): read-out: Below the curve and AUC0-t; for clearance: read-out: Clearance rate Cl; for half-life: read-out: Half-life T½ (converted)

T1 sequence (P01116 1-188 isoform P01116-2 G12C): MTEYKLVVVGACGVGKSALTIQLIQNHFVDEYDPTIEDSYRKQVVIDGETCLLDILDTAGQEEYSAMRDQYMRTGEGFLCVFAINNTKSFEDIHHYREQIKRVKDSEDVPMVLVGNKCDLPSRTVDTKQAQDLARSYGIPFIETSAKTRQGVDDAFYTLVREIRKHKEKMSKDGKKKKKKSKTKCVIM

| Structure (SMILES) | IC50 (KRAS^G12C/SOS1) [nM] | IC50 [1] [µM] | IC50 [2] [µM] | IC50 [3] [µM] | IC50 (CYP1A2) [µM] | IC50 (CYP2C19) [µM] | IC50 (hERG potassium channels) [µM] | AUC compared to the comparative compound 1 ([4]; in words) | clearance rate Cl compared to the comparative compound 1 ([4]; in words) | in vivo metabolic half-life compared to the comparative compound 1 ([4]; in words) | pharmacokinetic properties in mice compared to comparative compound 1 ([4]; in words) | AUC(0-t) [4] [µM·h] | clearance [4] [L/h/kg] | half-life [4] [h] |
| --- | --- | --- | --- | --- | --- | --- | --- | --- | --- | --- | --- | --- | --- | --- |
| C=CC(=O)N1CCN(c2c(C#N)c(OC[C@@H]3CCCN3C)nc3c(F)c(-c4ccc(F)c5sc(N)nc45)c(Cl)cc23)CC1 [Example 3, 4-(4-Piperazinylacryloylpiperazin-1-yl)-7-(2-Amino-7-Fluorobenzo[d]Thiazol-4-yl)-6-Chloro-8-Fluoro-2-(((S)-1-Methylpyrrolidin-2-Yl)Methoxy)Quinoline-3-Cyano] | < 50 | < 0.1 | < 0.5 | < 0.5 | > 10 | > 10 | > 20 | significantly increased | significantly lower | significantly longer | significantly better | 4.09 ± 0.373 | 0.381 ± 0.0402 | 6.5 |
| C=CC(=O)N1C[C@@H]2C(=O)N(C)c3cnc4c(F)c(-c5ccc(F)c6sc(N)nc56)c(Cl)cc4c3N2C[C@H]1C (single isomer, unassigned) [Example 17-1] | 50 to 200 | – | – | – | > 10 | > 10 | > 20 | significantly increased | significantly lower | – | significantly better | 3.31 ± 0.187 | 0.542 ± 0.03 | 1.1 |
| C=CC(=O)N1CCN(c2nc(OC[C@@H]3CCCN3C)nc3c(F)c(-c4ccc(F)c5sc(N)nc45)c(Cl)cc23)C[C@H]1C [Example 11, 1-((2R)-4-(7-(2-Amino-7-Fluorobenzo [d] Thiazol-4-yl) -6-Chloro-8-Fluoro-2-(((S)-1-Methylpyrrolidin-2-yl) Methoxy) Quinazolin-4-yl)-2-Methylpiperazin-1-yl) Prop-2-En-1-One] | 50 to 200 | < 0.1 | < 0.5 | < 0.5 | > 10 | > 10 | > 20 | – | – | – | – | – | – | – |
| C=CC(=O)N1CCN(c2c(C#N)c(N3CC(N(C)C)C3)nc3c(F)c(-c4ccc(F)c5sc(N)nc45)c(Cl)cc23)CC1 [Example 21, 4-(4-acryloyl Piperazin-1-yl)-7-(2-Amino-7-Fluorobenzo [d] Thiazol-4-yl) -6-Chloro-2-(3-(Dimethylamino) Azetidine-1-yl)-8-Fluoroquinolin-3 -Cyano] | < 50 | < 0.1 | < 0.5 | < 0.5 | > 10 | > 10 | > 20 | – | – | – | significantly better | 1.29 ± 0.07 | 1.3 ± 0.063 | 1.3 |
| C=CC(=O)N1CCN(c2c(C#N)cnc3c(F)c(-c4ccc(F)c5sc(N)nc45)c(Cl)cc23)CC1 [Example 8] | < 50 | < 0.1 | < 0.5 | < 0.5 | > 10 | > 10 | > 20 | significantly increased | significantly lower | – | significantly better | 2.85 ± 0.363 | 0.692 ± 0.0912 | 0.52 |
